The values that follow come from patent EP1363614B1, “USE OF 2-AMINO-1-(4-HYDROXY-3-METHANESULPHONAMIDOPHENYL)ETHANOL FOR TREATING URINARY INCONTINENCE” (Boehringer Ingelheim Pharma GmbH & Co. KG, priority 2001, dated 2002).

Data set [1] in a line: Metabolism: substrate breakdown by the enzyme CYP2D6. The note with it: 30 minutes' incubation with CYP2D6; read-out: % Substrate breakdown after 30 minutes' incubation with CYP2D6. Format: in vitro ADME. On the procedure:
To determine the metabolism the enzyme CYP2D6 was allowed to act on the hydrochloride of the compound 1 according to the formula I (2-amino-1-(4-hydroxy-3-methanesulphonamidophenyl)ethanol). After 30 minutes a check was made to determine how much of the substance had been broken down by the enzyme. (-)-R-2-Amino-1-(2-fluoro-5-methanesulphonamido-phenyl)ethanol 2 was used as a comparison.

The next data set deals with human urethra. Briefly: Efficacy: contraction of human urethra compared with noradrenaline. The note with it: percentage of contraction compared with noradrenaline. Format: cell-based. On the procedure: (§1) The efficacy and selectivity of the compound according to the invention is determined as follows, using the same findings as described in 1:
Maximum contraction in the dog and activity on human urethra are percentages of contraction compared with noradrenaline.

Data set [2] concerns dog's femoral artery; carotid artery in the dog. The experiment in a line: Selectivity in the dog: femoral artery versus carotid artery contraction. The format is cell-based. As to conditions: difference of percentage contraction of dog's femoral artery at 10^-5 M and percentage contraction of carotid artery at 10^-5 M. As for the experimental part:
as §1
Selectivity in the dog is the difference obtained from the percentage contraction of the dog's femoral artery at 10^-5 M and percentage contraction of the carotid artery in the dog at 10^-5 M.

Take `CS(=O)(=O)Nc1cc(C(O)CN)ccc1O` (stereo not drawn) [Compound 1, 2-amino-1-(4-hydroxy-3-methanesulphonamidophenyl)ethanol]: in data set [1], the metabolised at 0.5 h amounted to 1.4%. Further, in the data set on human urethra, the Emax – broadly, the size of the effect at its maximum, as opposed to the concentration needed – is 120%. For the same compound, in data set [2], the “selectivity in the dog” value is listed as 53.
The matching figures for `CS(=O)(=O)Nc1ccc(F)c([C@@H](O)CN)c1` [Compound 2, (-)-R-2-Amino-1-(2-fluoro-5-methanesulphonamido-phenyl)ethanol]: 2.1%, 48% and 40.
